# Values quoted from earlier work, collected in patent publication US20060128805A1, “Methods of treating erythropoietin-resistance” (priority 2004, published 2006).
# Conditions: within the first hour of oral administration
smiles,measurement,value
"Cc1c(O)c(=O)ccn1C [deferiprone, 1,2-dimethyl-3-hydroxy-pyrid-4-one]",mean increase in plasma aluminum,about 90%
